# Reference: PubChem BioAssay (NCI)
#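 Following 48 hours of exposure in 96-well plates, responses at five concentrations were used to interpolate endpoints linearly. GI50: concentration for 50% inhibition of growth. TGI: total growth inhibition.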
# System: MDA-MB-468 breast
# Experiment: DTP human tumour cell line panel, 48 h
SMILES,GI50,TGI
C=CC(=O)N1C[C@H](COc2nc(Nc3cnn(C)c3)nc3[nH]cc(Cl)c23)[C@@H](OC)C1,0.445 µM,2.59 µM
O=Cc1cn(Cc2ccc(Cl)cc2)c2ccccc12,0.022 µM,0.0801 µM
CC(C)C[C@H](NC(=O)Cn1ccc(Nc2ccccc2)cc1=O)B(O)O,0.423 µM,5.88 µM
C=C1C(=O)O[C@H]2[C@H]1CC/C(COC(=O)CCSSCCC(=O)OC/C1=C/CC[C@@]3(C)O[C@H]3[C@H]3OC(=O)C(=C)[C@@H]3CC1)=C\CC[C@@]1(C)O[C@@H]21,0.543 µM,2.28 µM
O=c1ccc2nc(C(F)(F)F)nn(-c3ccccc3)c-2c1,1.06 µM,2.98 µM
N#Cc1c(Br)n(C2OC(CO)C(O)C2O)c2ncn3ccnc3c12 (stereo not drawn),35.2 µM,> 100 µM
OCc1ccc(N(Cc2ccc(F)cc2)CC2CC2)cc1Cl,0.0189 µM,0.0686 µM
O=C(Nc1cccc(Cl)c1)Nc1nccs1,8.83 µM,89.5 µM
O=C(CCCCN1CCOCC1)Nc1ccc(Cn2nnc3c2C(=O)c2nnn(Cc4ccc(NC(=O)CCCCN5CCOCC5)cc4)c2C3=O)cc1,0.103 µM,0.261 µM
COc1ccc2c(c1)NC(=O)CN2c1nc(NC2CC2)nc2ccccc12,–,3.75 µM
C=C1C(=O)O[C@H]2[C@H]1CC/C(COC(=O)/C=C\C(=O)NCc1ccc(Cn3c(=O)sn(CCCI)c3=O)cc1)=C\CC[C@@]1(C)O[C@@H]21,0.519 µM,1.19 µM
C(=C1c2ccccc2-c2ccccc21)c1ccncc1,2.28 µM,6.64 µM
C[C@]12CCC(=O)CC1CC[C@@H]1C2CC[C@@]2(C)C1CC[C@@H]2OC(=O)CC[Se][Se]CCC(=O)O[C@H]1CCC2[C@@H]3CCC4CC(=O)CC[C@]4(C)C3CC[C@@]21C (stereo partly drawn),2.1 µM,5.06 µM
CN(C)CCCNCc1ccc(-c2ccc(F)c(Cl)c2)o1,8.92 µM,23.4 µM
Cc1ccc(NC2=N[C@]34CC(=O)CC[C@]3(C)[C@H]3CC[C@]5(C)C(=O)CC[C@H]5[C@@H]3C[C@@H]4S2)c(C)c1,1.93 µM,3.93 µM
N#CC1=C(N)Oc2c(ccc3ccccc23)C1c1cccs1 (stereo not drawn),0.0375 µM,13.7 µM
O=S(=O)(Nc1ccc(Cl)cc1)c1ccc(-c2cnc(C3CC3)o2)cc1,0.368 µM,6.01 µM
CCCC(=O)NC(c1ccc(N(CC)CC)cc1)c1cc(C)c2cccnc2c1O (stereo not drawn),0.386 µM,1.96 µM
O=C1N[C@@H]2[C@@H](O)[C@@H](O)[C@H](O)C[C@H]2c2cc3c(c(O)c21)OCO3,0.058 µM,0.298 µM
ClCCn1cnc2c(SCc3ccccc3Cl)ncnc21,9.76 µM,67.6 µM
CC1(C)CC[C@]2(C(N)=O)CC[C@]3(C)C(=CC[C@@H]4[C@@]5(C)C/C(=C/c6cccnc6)C(=O)C(C)(C)[C@@H]5CC[C@]43C)[C@@H]2C1,3.2 µM,> 100 µM

SMILES,GI50,TGI
CCOC(=O)c1nnn(-c2no[n+]([O-])c2-c2ccc(OC)cc2)c1COc1cccc2cccnc12,2.61 µM,7.99 µM
Cc1cc(Nc2ccc3c(c2)OCO3)c2cc3c(cc2n1)OCO3,0.519 µM,15 µM
Cc1nn(CCO)c(C)c1N=[N+]([O-])c1c(C)nn(CCO)c1C,2.84 µM,15.8 µM
Cc1cc(N(CCNc2ccnc3cc(Cl)ccc23)Cc2cccs2)nc(Cl)n1,1.22 µM,2.7 µM
O=C(N/N=C/c1c(Cl)cccc1Cl)c1cccnc1Nc1cccc(C(F)(F)F)c1,0.951 µM,9.27 µM
Cc1ccc(Cl)cc1-c1nc(N)nc(Nc2ccc(Br)cc2)n1,0.175 µM,0.614 µM
O=C(Nc1ccc([As]=[As]c2ccc(NC(=O)c3ccccc3)cc2)cc1)c1ccccc1 (stereo not drawn),0.152 µM,0.324 µM
C=C1C(=O)O[C@H]2[C@H]1CC/C(COC(=O)CCCC(=O)OC/C1=C/CC[C@@]3(C)O[C@H]3[C@H]3OC(=O)C(=C)[C@@H]3CC1)=C\CC[C@@]1(C)O[C@@H]21,1.51 µM,5.3 µM
CCCN(CCC)c1ccc(CO)c(Cl)c1,0.0469 µM,0.199 µM
CCOC(=O)/C=C1/SC(N2CCCCC2)C(=O)N1CC (stereo not drawn),> 100 µM,> 100 µM
CCCCCCCC(=O)SCC/C=C/[C@@H]1CC(=O)NCc2cccc(n2)CN(Cc2ccc3ccccc3c2)CC(=O)N[C@@H](C(C)C)C(=O)O1,33.3 µM,> 100 µM
C[CH2][Pb]([CH2]C)([CH2]C)[O]C(=O)COc1ccccc1,0.23 µM,0.659 µM
O=C(Nc1ccc(-c2nc(-c3cccc(O)c3)c(-c3ccnc(Br)c3)[nH]2)cc1)c1ccccc1,1.91 µM,4.74 µM
CC(=O)N1CCC(Nc2cc(C(=O)NC[C@H](O)CN3CCc4ccccc4C3)ncn2)CC1,> 100 µM,> 100 µM
O=CN/N=C/c1ccc(Cl)c([N+](=O)[O-])c1,0.127 µM,4.26 µM
Oc1cccc(-c2nc(-c3n[nH]c(=S)n3-c3ccccc3)cc3c2[nH]c2ccccc23)c1,2.54 µM,7.41 µM
COc1cc(-c2csc(NC(=O)Nc3ccc(Cl)c(C(F)(F)F)c3)n2)cc(OC)c1OC,0.775 µM,3.85 µM
CN(C)CCCn1c2c(c3ccc(-c4ccn[nH]4)cc3c1=O)C(=O)c1ccccc1-2,7.84 µM,24 µM
C[n+]1c2ccccc2c(Nc2ccc(N3CCCCC3)cc2)c2[nH]c3ccccc3c21,0.153 µM,0.401 µM
N#Cc1c(-c2ccc(Cl)cc2)nc(SCc2ccccc2)nc1N1CCNCC1,1.71 µM,3.46 µM
Cc1cc(Oc2ccccc2)ccc1Nc1ncnc2ccc(-c3cnc(Cl)c(NS(C)(=O)=O)c3)cc12,1.04 µM,3.33 µM
